Test results taken from paper PMC4822888, “Subtype-Selective Small Molecule Inhibitors Reveal a Fundamental Role for Nav1.7 in Nociceptor Electrogenesis, Axonal Conduction and Presynaptic Release” (PLoS ONE, 2016).
Where “and” joins values, the source holds several entries; their conditions need not be identical. Equal entries are not always repeated.

Experiments:
[1] = system: L-type calcium channels; assay: Blockade of L-type calcium channels
[2] = target: PDE3B (Homo sapiens, UniProt Q13370); assay: Off target activity panel; type: biochemical; conditions: read-out: Inhibition at test concentration (%)
[3] = system: PDE4 rolipram binding; assay: Off target activity panel; conditions: 10 µM
[4] = system: GABAA channel; assay: Off target activity panel; type: binding; conditions: 10 µM
[5] = system: Sigma receptor; assay: Off target activity panel; type: binding; conditions: 10 µM
[6] = target: Somatostatin receptor 4 (Homo sapiens, UniProt P31391); assay: Off target activity panel; type: binding; conditions: read-out: Inhibition at test concentration (%)
[7] = target: Adenosine A1 receptor (Homo sapiens, UniProt P30542); assay: Off target activity panel; type: binding; conditions: read-out: Inhibition at test concentration (%)
[8] = system: human DRG neurons (hDRG neurons); assay: Current clamp of action potentials in human DRG neurons; type: cell-based
[9] = target: T1, PPAR gamma (Homo sapiens, UniProt P37231); assay: Off target activity panel; type: binding
T1 sequence (P37231 1-505): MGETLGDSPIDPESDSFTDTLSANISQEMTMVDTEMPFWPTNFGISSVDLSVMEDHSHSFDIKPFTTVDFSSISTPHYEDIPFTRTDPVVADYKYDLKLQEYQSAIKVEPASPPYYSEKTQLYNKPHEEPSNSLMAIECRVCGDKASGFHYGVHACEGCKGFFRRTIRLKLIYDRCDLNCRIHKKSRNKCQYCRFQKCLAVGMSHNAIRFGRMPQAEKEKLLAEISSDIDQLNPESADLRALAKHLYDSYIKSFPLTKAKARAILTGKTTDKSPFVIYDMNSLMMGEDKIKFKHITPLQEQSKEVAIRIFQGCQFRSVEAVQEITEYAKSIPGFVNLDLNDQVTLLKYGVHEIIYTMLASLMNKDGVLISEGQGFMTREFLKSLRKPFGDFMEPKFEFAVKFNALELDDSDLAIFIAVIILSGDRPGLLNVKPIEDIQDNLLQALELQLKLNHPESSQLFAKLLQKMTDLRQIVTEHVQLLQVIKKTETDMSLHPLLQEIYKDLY

Sequence of PDE3B (Q13370 whole entry): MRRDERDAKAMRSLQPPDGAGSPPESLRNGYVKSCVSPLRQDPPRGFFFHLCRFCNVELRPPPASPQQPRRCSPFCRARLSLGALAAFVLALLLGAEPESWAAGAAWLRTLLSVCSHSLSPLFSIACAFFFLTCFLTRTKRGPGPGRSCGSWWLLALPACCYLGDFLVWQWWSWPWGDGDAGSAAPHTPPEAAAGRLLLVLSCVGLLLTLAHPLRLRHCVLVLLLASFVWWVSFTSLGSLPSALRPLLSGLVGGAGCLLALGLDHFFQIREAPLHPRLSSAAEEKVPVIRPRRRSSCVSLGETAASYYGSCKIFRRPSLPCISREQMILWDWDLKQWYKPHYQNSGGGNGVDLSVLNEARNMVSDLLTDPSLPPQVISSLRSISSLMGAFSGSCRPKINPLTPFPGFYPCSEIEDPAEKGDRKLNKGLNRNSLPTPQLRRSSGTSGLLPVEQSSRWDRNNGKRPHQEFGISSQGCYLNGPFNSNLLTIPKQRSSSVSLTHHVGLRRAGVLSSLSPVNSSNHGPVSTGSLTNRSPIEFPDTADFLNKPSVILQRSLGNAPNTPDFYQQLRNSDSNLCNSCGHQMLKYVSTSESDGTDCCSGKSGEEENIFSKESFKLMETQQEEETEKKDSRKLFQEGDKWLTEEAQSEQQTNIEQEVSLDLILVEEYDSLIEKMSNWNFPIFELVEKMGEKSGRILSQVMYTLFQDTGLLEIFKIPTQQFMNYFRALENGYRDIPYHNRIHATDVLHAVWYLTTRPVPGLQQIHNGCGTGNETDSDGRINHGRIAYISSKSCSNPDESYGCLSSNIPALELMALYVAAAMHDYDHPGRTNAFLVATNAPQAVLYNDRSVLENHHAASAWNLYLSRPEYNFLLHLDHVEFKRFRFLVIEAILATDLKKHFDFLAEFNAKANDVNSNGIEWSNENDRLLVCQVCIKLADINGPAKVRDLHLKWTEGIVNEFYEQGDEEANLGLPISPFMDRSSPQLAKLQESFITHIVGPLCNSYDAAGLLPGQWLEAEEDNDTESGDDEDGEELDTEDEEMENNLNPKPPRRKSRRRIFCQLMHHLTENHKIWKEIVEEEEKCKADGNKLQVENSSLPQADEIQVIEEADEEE
Sequence of Somatostatin receptor 4 (P31391 whole entry): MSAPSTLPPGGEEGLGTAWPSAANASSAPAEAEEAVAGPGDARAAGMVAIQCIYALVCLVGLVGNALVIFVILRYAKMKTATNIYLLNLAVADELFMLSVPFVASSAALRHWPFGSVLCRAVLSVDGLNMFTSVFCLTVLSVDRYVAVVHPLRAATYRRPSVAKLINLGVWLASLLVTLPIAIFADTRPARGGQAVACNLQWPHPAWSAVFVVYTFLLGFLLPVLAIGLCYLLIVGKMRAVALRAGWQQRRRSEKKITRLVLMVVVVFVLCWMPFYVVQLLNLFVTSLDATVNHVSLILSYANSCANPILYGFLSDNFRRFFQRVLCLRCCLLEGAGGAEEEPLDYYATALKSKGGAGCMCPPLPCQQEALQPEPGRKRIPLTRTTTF
Sequence of Adenosine A1 receptor (P30542 whole entry): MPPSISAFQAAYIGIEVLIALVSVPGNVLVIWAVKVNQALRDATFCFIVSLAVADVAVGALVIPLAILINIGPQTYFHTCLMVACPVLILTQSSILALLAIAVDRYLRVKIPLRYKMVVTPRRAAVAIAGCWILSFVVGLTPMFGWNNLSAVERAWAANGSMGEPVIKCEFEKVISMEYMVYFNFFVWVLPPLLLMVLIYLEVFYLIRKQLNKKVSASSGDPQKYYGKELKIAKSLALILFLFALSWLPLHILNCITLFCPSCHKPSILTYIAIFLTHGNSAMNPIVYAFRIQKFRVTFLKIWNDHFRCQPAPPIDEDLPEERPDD

In the case of `Nc1[nH]ncc1-c1cc(Cl)ccc1Oc1cc(F)c(S(=O)(=O)Nc2cscn2)cc1Cl` [PF-05089771, 4-[2-(5-amino-1H-pyrazol-4-yl)-4-chlorophenoxy]-5-chloro-2-fluoro-N-(1,3-thiazol-4-yl)benzenesulfonamide], the IC50 [1] is reported as 10 µM, the inhibition at 10 µM [2] is reported as 4% and the “Inhibition at test concentration (%)” value [3] is reported as 10%. The “Inhibition at test concentration (%)” value [4] was 41%, the “Inhibition at test concentration (%)” value [5] was -8% and the inhibition at 10 µM [6] was 5%. The inhibition at 10 µM [7] was 15%, the “Neurons with action potential block” value ([8]; 30 nM) was 3 out of 7 and 3/7 and the “Neurons with action potential failure” value ([8]; 100 nM) was 5 out of 8 and 5/8. The inhibition at 10 µM ([9]; 10 µM, read-out: Inhibition at test concentration (%)) was 60% and the Ki ([9]; PPAR gamma) was 2.8 µM.
